# In patent publication US20240116946A1 (Gilead Sciences, Inc., priority 2022, published 2024):
# Read-outs that look alike come from different tables or passages of the source.
# Tests used:
# [1] = molecular target: recombinant SARS-CoV-2 Main protease (Mpro) (Severe acute respiratory syndrome coronavirus 2 (2019-nCoV) (SARS-CoV-2), UniProt P0DTD1); assay: Cov Mpro Biochemical IC50 Assay; details: fluorogenic peptide substrate
# [2] = tested on: SARS-CoV-2-NLuc; assay: microbe, parasite or virus in culture; type: cell-based, SARS Coronavirus 2
# [3] = recombinant SARS-CoV-2 Mpro, read-out: MPro IC50
# [4] = Severe acute respiratory syndrome coronavirus, 48 h, read-out: MPro EC50
# [5] = Severe acute respiratory syndrome coronavirus, 48 h; read-out: MPro EC50
# [6] = MPro IC50, recombinant SARS-CoV-2 Mpro
Structure (SMILES),"IC50 [1, 3] [nM]","EC50 [2, 4] [nM]","EC50 [2, 5] [nM]","IC50 [1, 6] [nM]"
O=c1[nH]c2cc(-c3ccccc3C3CC3)sc2c(=O)n1-c1cncc2ccccc12 [Example 16],164,182,,
COCc1ccccc1-c1cc2[nH]c(=O)n(-c3cncc4ccccc34)c(=O)c2s1 [Example 17],35.1,160,,
O=c1[nH]c2cc(-c3ccccc3OCc3ccccc3)sc2c(=O)n1-c1cncc2ccccc12 [Example 18],2930,208,,
COc1cccc(Cl)c1-c1cc2[nH]c(=O)n(-c3cncc4ccccc34)c(=O)c2s1 [Example 19],29.5,59.6,,
O=c1[nH]cc(-c2cc3[nH]c(=O)n(-c4cncc5ccccc45)c(=O)c3s2)c(=O)[nH]1 [Example 20],8620,> 50000,,
O=c1[nH]c2cc(-c3ccsc3Cl)sc2c(=O)n1-c1cncc2ccccc12 [Example 21],32.5,204,,
O=c1[nH]c2cc(-c3cccnc3Cl)sc2c(=O)n1-c1cncc2ccccc12 [Example 22],37.1,120,,
Cc1ncccc1-c1cc2[nH]c(=O)n(-c3cncc4ccccc34)c(=O)c2s1 [Example 23],258,800,,
"O=c1[nH]c2cc(-c3ccccc3C(F)(F)F)ccc2c(=O)n1-c1cncc2ccccc12 [Example 24, 3-(isoquinolin-4-yl)-7-(2-(trifluoromethyl)phenyl)quinazoline-2,4(1H,3H)-dione]",2730,,2500,
O=c1[nH]c2cc(-c3ccccc3)ccc2c(=O)n1-c1cncc2ccccc12 [Example 25],1410,5040,,
O=c1[nH]c2cc(-c3cccc4ccccc34)ccc2c(=O)n1-c1cncc2ccccc12 [Example 26],40100,47900,,
Cc1cccc(C)c1-c1ccc2c(=O)n(-c3cncc4ccccc34)c(=O)[nH]c2c1 [Example 27],770,751,,
C#Cc1ccccc1-c1ccc2c(=O)n(-c3cncc4ccccc34)c(=O)[nH]c2c1 [Example 28],340,536,,
O=c1[nH]c2cc(-c3ccccc3)cnc2c(=O)n1-c1cncc2ccccc12 [Example 29],476,,4510,
O=c1[nH]c2cc(-c3ccccc3Cl)cnc2c(=O)n1-c1cncc2ccccc12 [Example 30],17.6,380,,
O=c1[nH]c2nc(-c3ccccc3)ccc2c(=O)n1-c1cncc2ccccc12 [Example 31],14800,,> 50000,
O=c1[nH]c2nc(-c3ccccc3Cl)ccc2c(=O)n1-c1cncc2ccccc12 [Example 32],2280,,7060,
N#Cc1cccc(-c2ccc3c(=O)n(-c4cncc5ccccc45)c(=O)[nH]c3c2)c1 [Example 34],1520,6530,,
N#Cc1ccc(-c2ccc3c(=O)n(-c4cncc5ccccc45)c(=O)[nH]c3c2)cc1 [Example 35],> 100000,> 50000,,
Cc1ccccc1-c1ccc2c(=O)n(-c3cncc4ccccc34)c(=O)[nH]c2c1 [Example 36],388,619,,
O=c1[nH]c2cc(-c3ccccc3Cl)c(F)cc2c(=O)n1-c1cncc2ccccc12 [Example 37],248,170,,

Structure (SMILES),"IC50 [1, 3] [nM]","EC50 [2, 4] [nM]","EC50 [2, 5] [nM]","IC50 [1, 6] [nM]"
O=c1[nH]c2cc(-c3ccccc3)c(F)cc2c(=O)n1-c1cncc2ccccc12 [Example 38],> 100000,,4910,
Cc1nnc(-c2cccc(-c3ccc4c(=O)n(-c5cncc6ccccc56)c(=O)[nH]c4c3)c2)o1 [Example 39],7750,,23400,
O=c1[nH]c2cc(-c3cccc4cccnc34)ccc2c(=O)n1-c1cncc2ccccc12 [Example 40],1310,,4910,
Cn1ccc2cccc(-c3ccc4c(=O)n(-c5cncc6ccccc56)c(=O)[nH]c4c3)c21 [Example 41],1480,,3840,
O=c1[nH]c2cc(-c3cncc4ccccc34)ccc2c(=O)n1-c1cncc2ccccc12 [Example 42],3220,,4950,
O=c1[nH]c2cc(-c3cccnc3)ccc2c(=O)n1-c1cncc2ccccc12 [Example 43],3120,> 50000,,
Cc1noc(C)c1-c1ccc2c(=O)n(-c3cncc4ccccc34)c(=O)[nH]c2c1 [Example 44],,,3000,1370
O=c1[nH]c2cc(-c3ccccc3C3CC3)ccc2c(=O)n1-c1cncc2ccccc12 [Example 45],,,1220,1710
Cc1ccccc1-c1cnc2c(=O)n(-c3cncc4ccccc34)c(=O)[nH]c2c1 [Example 46],216,,989,
COc1cccc(Cl)c1-c1cnc2c(=O)n(-c3cncc4ccccc34)c(=O)[nH]c2c1 [Example 48],95.7,,277,
O=c1[nH]c2cc(-c3ccc4sccc4c3)ccc2c(=O)n1-c1cncc2ccccc12 [Example 49],> 100000,12800,,
O=c1[nH]c2cc(-c3csc4ccccc34)ccc2c(=O)n1-c1cncc2ccccc12 [Example 50],7920,9060,,
O=c1[nH]c2cc(-c3ccc4ccccc4c3)ccc2c(=O)n1-c1cncc2ccccc12 [Example 51],> 100000,6800,,
CC(C)c1ccccc1-c1ccc2c(=O)n(-c3cncc4ccccc34)c(=O)[nH]c2c1 [Example 52],12800,3720,,
O=c1[nH]c2cc(-c3cc(Cl)cc(Cl)c3)ccc2c(=O)n1-c1cncc2ccccc12 [Example 53],33200,4330,,
COCc1ccccc1-c1ccc2c(=O)n(-c3cncc4ccccc34)c(=O)[nH]c2c1 [Example 54],741,1630,,
O=c1[nH]c2cc(-c3ccccc3OCc3ccccc3Cl)ccc2c(=O)n1-c1cncc2ccccc12 [Example 55],12800,1830,,
O=c1[nH]c2cc(-c3cccc(Cl)c3)ccc2c(=O)n1-c1cncc2ccccc12 [Example 56],2750,3940,,
O=c1[nH]c2cc(-c3ccccc3OCc3ccccc3)ccc2c(=O)n1-c1cncc2ccccc12 [Example 57],5450,1520,,
COc1cccc(Cl)c1-c1ccc2c(=O)n(-c3cncc4ccccc34)c(=O)[nH]c2c1 [Example 58],158,164,,
O=c1[nH]c2cc(-c3cccc(Cl)c3Cl)ccc2c(=O)n1-c1cncc2ccccc12 [Example 59],> 100000,6010,,

Structure (SMILES),"IC50 [1, 3] [nM]","EC50 [2, 4] [nM]","EC50 [2, 5] [nM]","IC50 [1, 6] [nM]"
O=c1[nH]c2cc(-c3cc(Cl)ccc3Cl)ccc2c(=O)n1-c1cncc2ccccc12 [Example 60],192,227,,
COc1cccc(F)c1-c1ccc2c(=O)n(-c3cncc4ccccc34)c(=O)[nH]c2c1 [Example 61],914,648,,
N#Cc1ncccc1-c1ccc2c(=O)n(-c3cncc4ccccc34)c(=O)[nH]c2c1 [Example 62],904,3150,,
Cc1ncccc1-c1ccc2c(=O)n(-c3cncc4ccccc34)c(=O)[nH]c2c1 [Example 63],5850,8440,,
Cc1c(-c2ccccc2Cl)sc2c1c(=O)n(-c1cncc3ccccc13)c(=O)n2CC1CCCC1 [Example 64],28400,,3140,
"N#Cc1ccccc1-c1ccc2c(=O)n(-c3cncc4ccccc34)c(=O)[nH]c2c1 [Example 65, 2-(3-(isoquinolin-4-yl)-2,4-dioxo-1,2,3,4-tetrahydroquinazolin-7-yl)benzonitrile]",108,286,,
"NC(=O)c1ccccc1-c1ccc2c(=O)n(-c3cncc4ccccc34)c(=O)[nH]c2c1 [Example 66, 2-(3-(isoquinolin-4-yl)-2,4-dioxo-1,2,3,4-tetrahydroquinazolin-7-yl)benzamide]",2010,> 50000,,
N#Cc1ccccc1-c1cc2[nH]c(=O)n(-c3cncc4ccccc34)c(=O)c2cc1F [Example 67],88.8,213,,
NC(=O)c1ccccc1-c1cc2[nH]c(=O)n(-c3cncc4ccccc34)c(=O)c2cc1F [Example 68],1010,43800,,
N#Cc1ccccc1-c1cnc2c(=O)n(-c3cncc4ccccc34)c(=O)[nH]c2c1 [Example 69],53.1,4210,,
NC(=O)c1ccccc1-c1cnc2c(=O)n(-c3cncc4ccccc34)c(=O)[nH]c2c1 [Example 70],2680,> 50000,,
COc1cccc(C#N)c1-c1ccc2c(=O)n(-c3cncc4ccccc34)c(=O)[nH]c2c1 [Example 71],76.4,141,,
COc1cccc(C(N)=O)c1-c1ccc2c(=O)n(-c3cncc4ccccc34)c(=O)[nH]c2c1 [Example 72],8200,> 50000,,
"O=c1[nH]c2cc(-c3ccccc3Cl)ccc2c(=O)n1-c1cncc2ccccc12 [Example 73, 7-(2-chlorophenyl)-3-(isoquinolin-4-yl)quinazoline-2,4(1H,3H)-dione]",159,262,,
"O=c1[nH]c2cc(-c3ccccc3-c3ccccc3Cl)ccc2c(=O)n1-c1cncc2ccccc12 [Example 74, 7-(2′-chloro-[1,1′-biphenyl]-2-yl)-3-(isoquinolin-4-yl)quinazoline-2,4(1H,3H)-dione]",470,711,,
Cc1c(-c2ccccc2Cl)sc2[nH]c(=O)n(-c3cncc4ccccc34)c(=O)c12 [Example 75],854,9390,,
Cc1c(-c2ccccc2Cl)sc2c(=O)n(-c3cncc4ccccc34)c(=O)[nH]c12 [Example 76],2780,7400,,
COc1cc2c(=O)n(-c3cncc4ccccc34)c(=O)[nH]c2cc1-c1c(Cl)cccc1OC [Example 77],131,,115,
O=c1[nH]c2sc(-c3ccccc3Cl)nc2c(=O)n1-c1cncc2ccccc12 [Example 78],404,9530,,
